Where two headings read alike, the source gives them in different places.
How the values were obtained:
[1] = test system: Staphylococcus aureus S13E; test: MIC, standard agar-dilution assay (Table II); format: cell-based; parameters: unit not given here
Procedure: (§1) The MIC's in Table II were determined by standard agar-dilution assays. The MIC's in Table III were obtained using a conventional broth-dilution microtiter test.

[2] = test system: Staphylococcus epidermidis EPI1; test: MIC, standard agar-dilution assay (Table II); format: cell-based; parameters: unit not given here
Procedure: as §1

[3] = test system: Streptococcus Group D 9960; test: MIC, standard agar-dilution assay (Table II); format: cell-based; parameters: unit not given here
Procedure: as §1

[4] = test system: Streptococcus pneumoniae Park I; test: MIC, standard agar-dilution assay (Table II); format: cell-based; parameters: unit not given here
Procedure: as §1

[5] = test system: Streptococcus pyogenes C203; test: MIC, standard agar-dilution assay (Table II); format: cell-based; parameters: unit not given here
Procedure: as §1

[6] = test system: Staphylococcus aureus X1.1; test: MIC, standard agar-dilution assay (Table II); format: cell-based; parameters: unit not given here
Procedure: as §1

[7] = test system: Haemophilus influenzae Holt; test: MIC, standard agar-dilution assay (Table II); format: cell-based; parameters: unit not given here; conditions: ampicillin-sensitive strain
Procedure: as §1

[8] = test system: Staphylococcus epidermidis EPI2; test: MIC, standard agar-dilution assay (Table II); format: cell-based; parameters: unit not given here
Procedure: as §1

[9] = test system: Streptococcus Group D X66; test: MIC, standard agar-dilution assay (Table II); format: cell-based; parameters: unit not given here
Procedure: as §1

[10] = test system: Staphylococcus aureus X400; test: MIC, standard agar-dilution assay (Table II); format: cell-based; parameters: unit not given here; conditions: Staphylococcus aureus X400, methicillin-resistant strain
Procedure: as §1

[11] = test system: Haemophilus influenzae R252; test: MIC, standard agar-dilution assay (Table II); format: cell-based; parameters: unit not given here; conditions: Haemophilus influenzae R252, ampicillin-resistant strain
Procedure: as §1

[12] = test system: Staphylococcus aureus V41; test: MIC, standard agar-dilution assay (Table II); format: cell-based; parameters: unit not given here; conditions: Staphylococcus aureus V41, penicillin-resistant strain
Procedure: as §1

Pasteurella multocida = test: Treatment of Pasteurella infections in chicks (Table V); format: in vivo, one-day-old chicks; conditions: 30 mg/kg by subcutaneous injection one and four hours post challenge; for mortality at 30 mg/kg: Pasteurella multocida, sc, 4 h, read-out: Deaths in Treated Chicks/Number Treated (converted)
Procedure, shortened: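 Dosing was 30 mg/kg by subcutaneous injection, one and four hours after challenge. Day-old chicks received 0.1 ml of a 10^-3 dilution of a 20-hour tryptose broth culture of avian P. multocida subcutaneously. Nonmedicated infected chicks served as controls, ten per group.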

[13] = test system: Streptococcus pyogenes C203; test: ED50 in mice with experimental infections (Table IV); format: in vivo; conditions: doses given 1 and 4 hours postinfection; for ED50: Streptococcus pyogenes
Procedure, shortened: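 Read-out is ED50, the mg/kg dose protecting half of infected mice; values refer to each of two doses, given 1 and 4 hours after infection.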

[14] = test system: Pasteurella multocida 68C; test: MIC, broth-dilution microtiter test (Table III); format: cell-based; parameters: unit not given here
Procedure: as §1

[15] = test system: Pasteurella haemolytica 22C; test: MIC, broth-dilution microtiter test (Table III); format: cell-based; parameters: unit not given here
Procedure: as §1

[16] = test system: Pasteurella multocida 60A; test: MIC, broth-dilution microtiter test (Table III); format: cell-based; parameters: unit not given here; conditions: avian isolate
Procedure: as §1

Streptococcus sp. 80 = test: MIC, broth-dilution microtiter test (Table III); format: cell-based; parameters: unit not given here
Procedure: as §1

[17] = test system: Pasteurella multocida 40G; test: MIC, broth-dilution microtiter test (Table III); format: cell-based; parameters: unit not given here
Procedure: as §1

Mycoplasma synoviae = test: MIC, broth-dilution microtiter test (Table III); format: cell-based; parameters: unit not given here
Procedure: as §1

[18] = test system: Pasteurella multocida 17E; test: MIC, broth-dilution microtiter test (Table III); format: cell-based; parameters: unit not given here; conditions: bovine isolate
Procedure: as §1

[19] = test system: Pasteurella haemolytica 23C; test: MIC, broth-dilution microtiter test (Table III); format: cell-based; parameters: unit not given here
Procedure: as §1

[20] = test system: Pasteurella multocida 22A; test: MIC, broth-dilution microtiter test (Table III); format: cell-based; parameters: unit not given here
Procedure: as §1

Mycoplasma hyorhinis = test: MIC, broth-dilution microtiter test (Table III); format: cell-based; parameters: unit not given here
Procedure: as §1

Mycoplasma gallisepticum = test: MIC, broth-dilution microtiter test (Table III); format: cell-based; parameters: unit not given here
Procedure: as §1

Staphylococcus aureus = test: MIC, broth-dilution microtiter test (Table III); format: cell-based; parameters: unit not given here
Procedure: as §1

[21] = test system: Pasteurella haemolytica 41D; test: MIC, broth-dilution microtiter test (Table III); format: cell-based; parameters: unit not given here
Procedure: as §1

[22] = C203, oral, read-out: ED50, Oral
[23] = C203, sc, subcutaneous, read-out: ED50, Subcutaneous

SMILES | minimal inhibitory concentration (MIC) [1] | minimal inhibitory concentration (MIC) [2] | minimal inhibitory concentration (MIC) [3] | minimal inhibitory concentration (MIC) [4] | minimal inhibitory concentration (MIC) [5] | minimal inhibitory concentration (MIC) [6] | minimal inhibitory concentration (MIC) [7] | minimal inhibitory concentration (MIC) [8] | minimal inhibitory concentration (MIC) [9] | minimal inhibitory concentration (MIC) [10] | minimal inhibitory concentration (MIC) [11] | minimal inhibitory concentration (MIC) [12] | minimal inhibitory concentration (MIC) [14] | minimal inhibitory concentration (MIC) [15] | minimal inhibitory concentration (MIC) [16] | minimal inhibitory concentration (MIC) (Streptococcus sp. 80) | minimal inhibitory concentration (MIC) [17] | minimal inhibitory concentration (MIC) [18] | minimal inhibitory concentration (MIC) [19] | minimal inhibitory concentration (MIC) [20] | other results
CCC(=O)OCC1C=C(C)C=CC(=O)C(C)CC(CC=O)C(OC2OC(C)C(O)C(N(C)C)C2O)C(C)C(O)CC(=O)OC1CC (stereo not drawn) [Compound 14, 23-O-Propionyl-OMT] | 0.25 | 0.125 | 0.25 | 0.125 | 0.125 | 0.25 | 1 | 0.125 | 0.25 | 0.25 | 4 | 0.25 | 1.56 | 6.25 | 0.78 | 0.195 | 1.56 | 1.56 | 3.12 | 3.12 | mortality at 30 mg/kg (Pasteurella multocida): 0%; ED50 [13, 22]: 106 mg/kg; ED50 [13, 23]: 6 mg/kg; minimal inhibitory concentration (MIC) (Mycoplasma synoviae): 0.05; minimal inhibitory concentration (MIC) (Mycoplasma hyorhinis): 6.25; minimal inhibitory concentration (MIC) (Mycoplasma gallisepticum): 0.05; minimal inhibitory concentration (MIC) (Staphylococcus aureus): 0.39; minimal inhibitory concentration (MIC) [21]: 6.25
CCC1OC(=O)CC(O)C(C)C(OC2OC(C)C(O)C(N(C)C)C2O)C(CC=O)CC(C)C(=O)C=CC(C)=CC1COC(=O)C(C)(C)C (stereo not drawn) [Compound 68] | 0.25 | 0.25 | 0.25 | 0.06 | 0.125 | 0.25 | 1 | 0.25 | 0.25 | 0.25 | 2 | 0.25 | 1.56 | 6.25 | 3.12 | < 0.78 | 3.12 | 3.12 | 3.12 | 3.12 | mortality at 30 mg/kg (Pasteurella multocida): 0%; ED50 [13, 22]: > 100 mg/kg; ED50 [13, 23]: 3.8 mg/kg; minimal inhibitory concentration (MIC) (Mycoplasma synoviae): < 0.048; minimal inhibitory concentration (MIC) (Mycoplasma hyorhinis): 0.097; minimal inhibitory concentration (MIC) (Mycoplasma gallisepticum): 0.097; minimal inhibitory concentration (MIC) (Staphylococcus aureus): 1.56; minimal inhibitory concentration (MIC) [21]: 6.25
CCC1OC(=O)CC(O)C(C)C(OC2OC(C)C(O)C(N(C)C)C2O)C(CC=O)CC(C)C(=O)C=CC(C)=CC1COC(=O)C(N)c1ccccc1 (stereo not drawn) [Compound 57] | 0.5 | 0.5 | 0.5 | 0.03 | 0.125 | 0.5 | 2 | 1 | 0.5 | 1 | 2 | 0.5 | 3.12 | 6.25 | 3.12 | 0.39 | 3.12 | 6.25 | 6.25 | 3.12 | Deaths in Treated Chicks/Number Treated (Pasteurella multocida): 0/10; ED50, Oral ([13]; oral): 91 mg/kg × 2; ED50, Subcutaneous ([13]; subcutaneous): 2.6 mg/kg × 2; minimal inhibitory concentration (MIC) (Mycoplasma synoviae): 0.39; minimal inhibitory concentration (MIC) (Mycoplasma hyorhinis): 6.25; minimal inhibitory concentration (MIC) (Mycoplasma gallisepticum): 0.195; minimal inhibitory concentration (MIC) (Staphylococcus aureus): 3.12; minimal inhibitory concentration (MIC) [21]: 6.25
CCC1OC(=O)CC(O)C(C)C(OC2OC(C)C(O)C(N(C)C)C2O)C(CC=O)CC(C)C(=O)C=CC(C)=CC1COC(=O)[C@H](NC(=O)OC(C)(C)C)c1ccccc1 (stereo partly drawn) [Compound 40, 23-O-(D-t-BOC-Phenylglycyl)-OMT] | 0.5 | 0.5 | 0.5 | 0.06 | 0.125 | 0.5 | 2 | 0.5 | 0.5 | 1 | 2 | 1 | 6.25 | 12.5 | 6.25 | 0.195 | 6.25 | 6.25 | 12.5 | 12.5 | mortality at 30 mg/kg (Pasteurella multocida): 100%; ED50 [13, 22]: 116 mg/kg; ED50 [13, 23]: 5 mg/kg; minimal inhibitory concentration (MIC) (Mycoplasma hyorhinis): 0.39; minimal inhibitory concentration (MIC) (Mycoplasma gallisepticum): < 0.05; minimal inhibitory concentration (MIC) (Staphylococcus aureus): 0.78; minimal inhibitory concentration (MIC) [21]: 12.5
CCC1OC(=O)CC(O)C(C)C(OC2OC(C)C(O)C(N(C)C)C2O)C(CC=O)CC(C)C(=O)C=CC(C)=CC1COC(=O)COc1ccccc1 (stereo not drawn) [Compound 36, 23-O-Phenoxyacetyl-OMT] | 0.125 | 0.125 | 0.125 | 0.03 | 0.06 | 0.125 | 0.5 | 0.25 | 0.125 | 0.25 | 0.5 | 0.25 | 0.78 | 3.12 | 1.56 | < 0.05 | 1.56 | 1.56 | 3.12 | 3.12 | mortality at 30 mg/kg (Pasteurella multocida): 10%; ED50 [13, 22]: > 150 mg/kg; ED50 [13, 23]: 6 mg/kg; minimal inhibitory concentration (MIC) (Mycoplasma hyorhinis): 1.56; minimal inhibitory concentration (MIC) (Mycoplasma gallisepticum): < 0.05; minimal inhibitory concentration (MIC) (Staphylococcus aureus): 0.39; minimal inhibitory concentration (MIC) [21]: 3.12

Source: patent US4401660A, “Ester derivatives of 5-O-mycaminosyl tylonolide and method of using same” (Eli Lilly and Company, priority 1981, dated 1983)
